Measured values published in ChEMBL document CHEMBL6178017, “Intercepting the Downstream of the Estrogen Receptor Signaling Pathway: Discovery of a Potent and Efficient SRC-3 PROTAC Degrader for Overcoming Endocrine Resistance Breast Cancer” (J Med Chem, 2025).
Activity calls are given as the source filed them. The rule behind the calls is not given here.

How the values were obtained:
[1] = Induction of cell cycle arrest in tamoxifen-resistant human LCC2 cells assessed as accumulation of cells at G1 phase at 20 uM incubated for 48 hrs by propidium iodide staining based flow cytometry (reference value: 78.71%); assay type: functional
[2] = target: T1, Protein cereblon/Nuclear receptor coactivator 3 (Homo sapiens, UniProt Q9Y6Q9+Q96SW2); test: Binding affinity to CRBN/SRC-3 in human MCF7 cells assessed as CRBN/compound/SRC-3 ternary complex formation by measuring increase in yellow fluorescence intensity at 10 uM incubated for 6 hrs by immunofluorescence analysis; assay type: cell-based
T1 sequence (Q96SW2 whole entry partner): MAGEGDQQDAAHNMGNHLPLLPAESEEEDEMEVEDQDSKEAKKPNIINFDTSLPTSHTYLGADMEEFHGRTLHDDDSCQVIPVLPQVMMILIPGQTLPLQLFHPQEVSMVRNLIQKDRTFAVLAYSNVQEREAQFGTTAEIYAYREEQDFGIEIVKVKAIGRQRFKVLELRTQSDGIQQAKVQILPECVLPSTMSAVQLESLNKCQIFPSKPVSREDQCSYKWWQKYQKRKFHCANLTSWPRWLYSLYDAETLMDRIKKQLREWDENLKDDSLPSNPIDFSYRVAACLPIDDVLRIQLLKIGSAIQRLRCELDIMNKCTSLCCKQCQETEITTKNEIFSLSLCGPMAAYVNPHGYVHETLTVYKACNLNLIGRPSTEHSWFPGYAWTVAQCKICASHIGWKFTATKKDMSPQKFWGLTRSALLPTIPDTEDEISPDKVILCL
T1 sequence (Q9Y6Q9 2-1424 limits assumed): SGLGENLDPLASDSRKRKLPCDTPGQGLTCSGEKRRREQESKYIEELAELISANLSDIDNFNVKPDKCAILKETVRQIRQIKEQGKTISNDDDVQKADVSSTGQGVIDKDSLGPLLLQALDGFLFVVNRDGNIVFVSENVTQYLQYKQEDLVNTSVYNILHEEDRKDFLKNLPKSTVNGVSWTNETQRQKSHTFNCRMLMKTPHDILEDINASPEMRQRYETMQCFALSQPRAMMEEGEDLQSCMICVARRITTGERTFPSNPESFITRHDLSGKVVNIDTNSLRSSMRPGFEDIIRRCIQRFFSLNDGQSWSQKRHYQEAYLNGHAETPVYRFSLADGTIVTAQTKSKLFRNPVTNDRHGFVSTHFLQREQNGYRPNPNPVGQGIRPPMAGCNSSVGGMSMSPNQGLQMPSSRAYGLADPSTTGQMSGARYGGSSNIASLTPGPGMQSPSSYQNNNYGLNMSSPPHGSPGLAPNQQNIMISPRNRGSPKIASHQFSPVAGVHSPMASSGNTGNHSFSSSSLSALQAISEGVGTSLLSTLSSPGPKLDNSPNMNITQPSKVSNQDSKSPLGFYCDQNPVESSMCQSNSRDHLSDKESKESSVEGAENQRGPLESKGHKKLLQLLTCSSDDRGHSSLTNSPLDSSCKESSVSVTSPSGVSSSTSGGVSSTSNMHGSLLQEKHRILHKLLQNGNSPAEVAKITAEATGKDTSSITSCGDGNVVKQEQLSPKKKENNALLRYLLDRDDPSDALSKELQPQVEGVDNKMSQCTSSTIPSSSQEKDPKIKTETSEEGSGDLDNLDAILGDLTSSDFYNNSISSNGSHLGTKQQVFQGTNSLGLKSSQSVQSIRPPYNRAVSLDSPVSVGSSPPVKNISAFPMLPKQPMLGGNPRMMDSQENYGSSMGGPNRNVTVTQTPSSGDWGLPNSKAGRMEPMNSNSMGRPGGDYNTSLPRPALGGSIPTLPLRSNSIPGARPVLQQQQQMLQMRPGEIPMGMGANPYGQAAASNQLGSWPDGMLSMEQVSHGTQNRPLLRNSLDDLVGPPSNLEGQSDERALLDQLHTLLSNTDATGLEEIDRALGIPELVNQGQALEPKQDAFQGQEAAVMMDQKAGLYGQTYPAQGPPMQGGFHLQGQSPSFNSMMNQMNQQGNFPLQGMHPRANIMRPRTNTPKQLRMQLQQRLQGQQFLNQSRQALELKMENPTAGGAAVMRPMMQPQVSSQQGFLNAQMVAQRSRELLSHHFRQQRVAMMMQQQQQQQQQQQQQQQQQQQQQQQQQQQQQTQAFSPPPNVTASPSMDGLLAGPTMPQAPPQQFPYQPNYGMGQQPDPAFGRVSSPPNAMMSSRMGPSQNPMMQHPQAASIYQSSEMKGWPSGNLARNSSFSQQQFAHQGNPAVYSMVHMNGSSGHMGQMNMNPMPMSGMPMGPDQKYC

[3] = target: T1, Protein cereblon/Nuclear receptor coactivator 3; test: PROTAC activity at CRBN/SRC-3 in human MCF7 cells assessed as induction of SRC-3 degradation at 1 uM incubated for 24 hrs by immunoblot analysis; assay type: cell-based
[4] = target: T1, Protein cereblon/Nuclear receptor coactivator 3; test: PROTAC activity at CRBN/SRC-3 in human MCF7 cells assessed as induction of SRC-3 degradation at 1 uM incubated for 24 hrs by immunoblot analysis relative to control; assay type: cell-based
[5] = AUC (0 to t) in Balb/c mouse at 4 mg/kg, ip by LC-MS/MS analysis; assay type: ADME, organism-based; conditions: in vivo
[6] = target: Nuclear receptor coactivator 3 (Homo sapiens) (UniProt Q9Y6Q9); test: Binding affinity to SRC-3 in human MCF7 cells assessed as increase in thermal stability of the protein at 1 uM incubated for 6 hrs followed by exposure to higher temperatures for 5 mins by CETSA analysis; assay type: cell-based; conditions: time 365.0 min
Nuclear receptor coactivator 3 (Homo sapiens), sequence (Q9Y6Q9 2-1424 limits assumed): as above

[7] = Metabolic stability of the compound in human plasma measured after 2 hrs by LC-MS/MS analysis; assay type: ADME, cell-free; conditions: read-out: Stability
[8] = target: T1, Protein cereblon/Nuclear receptor coactivator 3; test: PROTAC activity at CRBN/SRC-3 in human MCF-7 cells harboring Y537S mutant assessed as induction of SRC-3 degradation by measuring downregulation of SRC-3 protein level at 0.1 uM measured after 36 hrs by immunoblot analysis; assay type: cell-based; conditions: MCF7
[9] = target: T1, Protein cereblon/Nuclear receptor coactivator 3; test: PROTAC activity at CRBN/SRC-3 in human MCF7 assessed as induction of ER-alpha degradation at 0.1 to 10 uM incubated for 24 hrs by immunoblot analysis; assay type: cell-based; conditions: dose 0.1-10 µM
[10] = target: T1, Protein cereblon/Nuclear receptor coactivator 3; test: PROTAC activity at CRBN/SRC-3 in human MCF7 cells assessed as induction of SRC-3 degradation incubated for 24 hrs by immunoblot analysis; assay type: cell-based; conditions: dose 0.1-10 µM
MCF7 = test: Antiproliferative activity against human MCF7 cells assessed as inhibition of cell growth by CCK8 assay; assay type: functional, cell-based
[11] = Bioavailability in Balb/c mouse at 4 mg/kg, ip by LC-MS/MS analysis; assay type: ADME, organism-based; conditions: in vivo
[12] = target: T1, Protein cereblon/Nuclear receptor coactivator 3; test: PROTAC activity at CRBN/SRC-3 in tamoxifen-resistant human LCC2 cells assessed as downregulation of ER-alpha mRNA expression at 0.01 to 10 uM incubated for 36 hrs by qRT-PCR analysis; assay type: cell-based; conditions: Tamoxifen-resistant LCC2 cell, dose 0.01-10 µM
[13] = target: Protein cereblon/Eukaryotic peptide chain release factor GTP-binding subunit ERF3A (Homo sapiens) (UniProt Q96SW2+P15170); test: PROTAC activity at CRBN/GSPT1-alpha in tamoxifen-resistant human LCC2 cells assessed as degradation of GSPT1 at 10 uM measured after 36 hrs by diaPASEF-based quantitative proteomics analysis; conditions: Tamoxifen-resistant LCC2 cell
Protein cereblon/Eukaryotic peptide chain release factor GTP-binding subunit ERF3A (Homo sapiens), sequence (P15170 whole entry, looked up): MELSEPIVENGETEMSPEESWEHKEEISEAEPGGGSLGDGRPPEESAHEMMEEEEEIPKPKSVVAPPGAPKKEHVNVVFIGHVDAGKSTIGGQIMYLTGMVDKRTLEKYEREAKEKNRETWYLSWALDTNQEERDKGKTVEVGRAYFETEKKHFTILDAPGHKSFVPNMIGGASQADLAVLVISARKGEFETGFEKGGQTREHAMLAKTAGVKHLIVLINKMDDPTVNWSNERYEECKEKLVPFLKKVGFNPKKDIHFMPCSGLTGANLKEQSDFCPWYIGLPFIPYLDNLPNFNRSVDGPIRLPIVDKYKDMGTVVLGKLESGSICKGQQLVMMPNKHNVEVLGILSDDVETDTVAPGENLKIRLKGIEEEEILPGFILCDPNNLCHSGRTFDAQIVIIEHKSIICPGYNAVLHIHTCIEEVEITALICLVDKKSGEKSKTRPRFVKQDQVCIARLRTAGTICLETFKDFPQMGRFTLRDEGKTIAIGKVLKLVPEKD
Protein cereblon/Eukaryotic peptide chain release factor GTP-binding subunit ERF3A (Homo sapiens), sequence (Q96SW2 whole entry, looked up): as the sequence (Q96SW2 whole entry partner) above

[14] = Cmax in Balb/c mouse at 2 mg/kg, iv by LC-MS/MS analysis; assay type: ADME, organism-based; conditions: in vivo
[15] = Induction of apoptosis in tamoxifen-resistant human LCC2 cells assessed as late apoptotic cells at 5 uM incubated for 48 hrs by AnnexinV-FITC/PI staining based flow cytometry (reference value: 4.83%); assay type: functional, Tamoxifen-resistant LCC2 cell
[16] = Half life in Balb/c mouse at 2 mg/kg, iv by LC-MS/MS analysis; assay type: ADME, organism-based; conditions: in vivo
[17] = AUC (0 to infinity) in Balb/c mouse at 4 mg/kg, ip by LC-MS/MS analysis; assay type: ADME, organism-based; conditions: in vivo
[18] = target: T1, Protein cereblon/Nuclear receptor coactivator 3; test: PROTAC activity at CRBN/SRC-3 in human MCF-7 cells harboring D538G mutant assessed as induction of SRC-3 degradation measured after 36 hrs by immunoblot analysis; assay type: cell-based; conditions: MCF7, dose 0.01-10 µM
[19] = Hepatic extraction ratio in human liver microsomes in presence of NADPH by LC-MS/MS analysis; assay type: ADME, Microsome; conditions: read-out: ERH
[20] = Half life in Balb/c mouse at 4 mg/kg, ip by LC-MS/MS analysis; assay type: ADME, organism-based; conditions: in vivo
[21] = Induction of cell cycle arrest in tamoxifen-resistant human LCC2 cells assessed as accumulation of cells at S phase at 20 uM incubated for 48 hrs by propidium iodide staining based flow cytometry (reference value: 9.72%); assay type: functional
[22] = Induction of cell cycle arrest in tamoxifen-resistant human LCC2 cells assessed as accumulation of cells at G2/M phase at 10 uM incubated for 48 hrs by propidium iodide staining based flow cytometry (reference value: 11.42%); assay type: functional
[23] = Toxicity against Balb/c mouse xenografted with tamoxifen-resistant human LCC2 cells assessed as effect on body weight at 10 uM/Kg, ip administered once every 2 days for 23 days; assay type: organism-based; conditions: in vivo, 552 h, time 23 day

Which Activity [1] does the source give for `C/C(=N\Nc1nc2ccccc2n1C1CN(C2CCN(c3cccc4c3C(=O)N(C3CCC(=O)NC3=O)C4=O)CC2)C1)c1ccccn1` (centres undefined) here?
Its Activity is 85.05%.

And the Activity [2]?
Its Activity is “Active”.

What about the Activity [3] of the same compound?
The Activity was “Active”.

What about the Activity [4] of the same compound?
Its Activity is 71%.

And the AUC(0-t) [5]?
The AUC(0-t) was 49.1 ng·h/mL.

What about the Activity [6] of the same compound?
The Activity was “Active”.

What about the remaining at 2 h [7] of the same compound?
The remaining at 2 h was over 50%.

What about the Activity [8] of the same compound?
Its Activity is “Active”.

What about the Activity [9] of the same compound?
Its Activity is “Active”.

And the Activity [10]?
The Activity was “Dose-dependent-effect”.

And the IC50 (MCF7)?
Its IC50 is 10 nM.

And the bioavailability [11]?
Its bioavailability is 8%.

And the Activity [12]?
The Activity was “Active”.

What about the Activity [13] of the same compound?
The Activity was “inactive”.

What about the Cmax [14] of the same compound?
The Cmax was 148 ng/mL.

What about the Activity [15] of the same compound?
Its Activity is 24.79%.

What about the half-life [16] of the same compound?
The half-life was 206 min.

And the AUC(0-inf) [17]?
Its AUC(0-inf) is 55.2 ng·h/mL.

And the Activity [18]?
Its Activity is “Dose-dependent-effect”.

What about the hepatic extraction ratio [19] of the same compound?
The hepatic extraction ratio was 0.902.

And the half-life [20]?
The half-life was 208 min.

And the Activity [21]?
The Activity was 11.58%.

And the Activity [22]?
Its Activity is 3.83%.

What about the Activity [23] of the same compound?
Its Activity is “Non-toxic”.
